Where a name gives a salt, the structure may show the parent alone.
Biological target: BACE1 (Homo sapiens (Human), UniProt P56817)
Assay: BACE1 Cell-Free Assay (fluorescence polarization)
Type: biochemical
Conditions: geometric mean of 2-4 determinations unless otherwise indicated (b: ≧5; c: single determination); read-out: BACE1 Cell-free Assay IC50

Sequence of BACE1 (P56817 46-457): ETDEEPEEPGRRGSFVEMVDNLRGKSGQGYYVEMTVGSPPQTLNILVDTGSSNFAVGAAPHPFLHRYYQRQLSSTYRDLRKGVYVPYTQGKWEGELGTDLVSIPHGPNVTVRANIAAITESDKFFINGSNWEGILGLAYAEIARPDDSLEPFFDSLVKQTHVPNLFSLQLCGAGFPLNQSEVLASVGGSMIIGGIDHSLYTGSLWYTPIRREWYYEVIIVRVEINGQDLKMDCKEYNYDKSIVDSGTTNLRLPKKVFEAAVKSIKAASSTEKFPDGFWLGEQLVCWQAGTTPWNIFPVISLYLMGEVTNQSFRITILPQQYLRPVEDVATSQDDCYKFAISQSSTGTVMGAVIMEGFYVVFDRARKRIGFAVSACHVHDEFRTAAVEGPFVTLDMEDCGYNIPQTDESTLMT

| IC50 [nM] | SMILES |
| --- | --- |
| 1490 | C[C@H]1C[C@H]2CSC(N)=N[C@@]2(c2nc(NC(=O)C3CC(F)(F)C3)cs2)CO1 [Example 78, N-{2-[(4aR,6S,8aR)-2-amino-6-methyl-4,4a,5,6-tetrahydropyrano[3,4-d][1,3]thiazin-8a(8H)-yl]-1,3-thiazol-4-yl}-3,3-difluorocyclobutanecarboxamide, trifluoroacetate salt] |
| 3380 | C[C@H]1C[C@H]2CSC(N)=N[C@@]2(c2nc(NC(=O)c3cc(Cl)n(C)n3)cs2)CO1 [Example 81, N-{2-[(4aR,6S,8aR)-2-amino-6-methyl-4,4a,5,6-tetrahydropyrano[3,4-d][1,3]thiazin-8a(8H)-yl]-1,3-thiazol-4-yl}-5-chloro-1-methyl-1H-pyrazole-3-carboxamide] |
| 1080 | C[C@H]1C[C@H]2CSC(N)=N[C@@]2(c2nc(NC(=O)c3cnc(C4CC4)cn3)cs2)CO1 [Example 82, N-{2-[(4aR,6S,8aR)-2-amino-6-methyl-4,4a,5,6-tetrahydropyrano[3,4-d][1,3]thiazin-8a(8H)-yl]-1,3-thiazol-4-yl}-5-cyclopropylpyrazine-2-carboxamide, hydrochloride salt] |
| 671 | C[C@H]1C[C@H]2CSC(N)=N[C@@]2(c2nc(NC(=O)c3cnn(C(F)F)c3)cs2)CO1 [Example 83, N-{2-[(4aR,6S,8aR)-2-amino-6-methyl-4,4a,5,6-tetrahydropyrano[3,4-d][1,3]thiazin-8a(8H)-yl]-1,3-thiazol-4-yl}-1-(difluoromethyl)-1H-pyrazole-4-carboxamide] |
| 16200 | CC(C)c1nc(C(=O)Nc2csc([C@]34CO[C@@H](C)C[C@H]3CSC(N)=N4)n2)co1 [Example 86, N-{2-[(4aR,6S,8aR)-2-amino-6-methyl-4,4a,5,6-tetrahydropyrano[3,4-d][1,3]thiazin-8a(8H)-yl]-1,3-thiazol-4-yl}-2-(propan-2-yl)-1,3-oxazole-4-carboxamide] |
| 398 | C[C@H]1C[C@H]2CSC(N)=N[C@@]2(c2nc(NC(=O)c3ccn(CC(F)F)n3)cs2)CO1 [Example 87, N-{2-[(4aR,6S,8aR)-2-amino-6-methyl-4,4a,5,6-tetrahydropyrano[3,4-d][1,3]thiazin-8a(8H)-yl]-1,3-thiazol-4-yl}-1-(2,2-difluoroethyl)-1H-pyrazole-3-carboxamide] |
| 418 | COCCn1ccc(C(=O)Nc2csc([C@]34CO[C@@H](C)C[C@H]3CSC(N)=N4)n2)n1 [Example 88, N-{2-[(4aR,6S,8aR)-2-amino-6-methyl-4,4a,5,6-tetrahydropyrano[3,4-d][1,3]thiazin-8a(8H)-yl]-1,3-thiazol-4-yl}-1-(2-methoxyethyl)-1H-pyrazole-3-carboxamide] |

| SMILES | IC50 [nM] |
| --- | --- |
| C[C@H]1C[C@H]2CSC(N)=N[C@@]2(c2nc(NC(=O)c3ccon3)cs2)CO1 [Example 77, N-{2-[(4aR,6S,8aR)-2-amino-6-methyl-4,4a,5,6-tetrahydropyrano[3,4-d][1,3]thiazin-8a(8H)-yl]-1,3-thiazol-4-yl}-1,2-oxazole-3-carboxamide, trifluoroacetate salt] | 777 |
| C[C@H]1C[C@H]2CSC(N)=N[C@@]2(c2nc(NC(=O)c3ncccn3)cs2)CO1 [Example 79, N-{2-[(4aR,6S,8aR)-2-amino-6-methyl-4,4a,5,6-tetrahydropyrano[3,4-d][1,3]thiazin-8a(8H)-yl]-1,3-thiazol-4-yl}pyrimidine-2-carboxamide, trifluoroacetate salt] | 1080 |
| C[C@H]1C[C@H]2CSC(N)=N[C@@]2(c2nc(NC(=O)c3ccnn3C3CC3)cs2)CO1 [Example 85, N-{2-[(4aR,6S,8aR)-2-amino-6-methyl-4,4a,5,6-tetrahydropyrano[3,4-d][1,3]thiazin-8a(8H)-yl]-1,3-thiazol-4-yl}-1-cyclopropyl-1H-pyrazole-5-carboxamide, formate salt] | 4240 |

Source: patent US9315520B2, “2-amino-6-methyl-4,4a,5,6-tetrahydropyrano[3,4-d][1,3]thiazin-8a(8H)-yl-1,3-thiazol-4-yl amides” (Pfizer Inc., priority 2014, dated 2016)
